Test system: fungal tyrosinase
Test: in vitro inhibition of the activity of fungal tyrosinase (OD at 475 nm)
Type: biochemical
Details: active agent alone in ethanol, C1 = 1.25 × 10^−4 M
Procedure: This test consists in measuring the absorbence (optical density OD) at 475 nm as a function of time for each of the depigmenting active agents tested. These agents are dissolved (at various concentrations) in a suitable solvent in the presence of a phosphate buffer, 1 ml of L-tyrosine at 2.0×10^−3 M in a phosphate buffer, 0.1 ml of L-Dopa at 1.0×10^−4 M in a phosphate buffer and 50 μl of a fungal tyrosinase solution at 1 g/l in a phosphate buffer, compared with a control consisting of the solvent used at the same concentration in the phosphate buffer. A percentage of inhibition is then determined by the following equation: [formula] […] These two active agents in the concentrations C1 and C2 found above are then mixed together. The theoretical percentage of inhibition of the mixture (or theoretical IC), corresponding to the sum of the percentages of inhibition observed for the individual compounds, is then calculated, and the percentage of inhibition obtained (or measured IC) is measured under the same experimental conditions as for the compounds tested separately.

CCOC(=O)Nc1ccc(O)cc1 [N-ethoxy-carbonyl-4-aminophenol, N-ethyloxycarbonyl-4-aminophenol]
IC obtained (%) (inhibition actually obtained): 23.5%
Theoretical IC (%) (inhibition value that should be observed (close to 25%)): 24.8%

— patent US20020107282A1, “Cosmetic composition containing an aminophenol derivative and an isoflavonoid” (L'OREAL, priority 2000, published 2002)
